Assay results reported in PubChem BioAssay AID330 (DTP/NCI, 2004).
“And” between values parts separate entries of the source, which are not always exact repeats. Equal values may be shown once. Inconclusive results and toxic doses are left out. How the source made its calls: active means survival T/C of 150% or more; inactive means T/C below 125% in these data.

Test system: P388 leukemia ip, CD2F1 mice, survival T/C
Assay: NCI In Vivo Anticancer Drug Screen. Data for tumor model P388 Leukemia (intraperitoneal) in CD2F1 (CDF1) mice
Conditions: endpoint: median survival time, higher = longer survival
In short: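 Mice carrying the transplanted tumor received test compound or vehicle. Survival was recorded in each group, and the value is the treated-group measurement divided by that of the vehicle-treated control group.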

[1] = dose: 50.0 mg/kg/injection, schedule: Q01DX005 (ip), vehicle: Klucel (hydroxypropylcellulose) (HPC)
[2] = dose: 100.0 mg/kg/injection, schedule: Q01DX005 (ip), vehicle: Klucel (hydroxypropylcellulose) (HPC)
[3] = dose: 200.0 mg/kg/injection, schedule: Q01DX005 (ip), vehicle: Klucel (hydroxypropylcellulose) (HPC)
[4] = dose: 50.0 mg/kg/injection, schedule: Q01DX005 (ip), vehicle: saline with Tween-80
[5] = dose: 100.0 mg/kg/injection, schedule: Q01DX005 (ip), vehicle: saline with Tween-80
[6] = dose: 200.0 mg/kg/injection, schedule: Q01DX005 (ip), vehicle: saline with Tween-80
[7] = dose: 50.0 mg/kg/injection, schedule: Q01DX009 (ip), vehicle: Klucel (hydroxypropylcellulose) (HPC)
[8] = dose: 100.0 mg/kg/injection, schedule: Q01DX009 (ip), vehicle: Klucel (hydroxypropylcellulose) (HPC)
[9] = dose: 200.0 mg/kg/injection, schedule: Q01DX009 (ip), vehicle: Klucel (hydroxypropylcellulose) (HPC)
[10] = dose: 50.0 mg/kg/injection, schedule: Q01DX009 (ip), vehicle: saline
[11] = dose: 100.0 mg/kg/injection, schedule: Q01DX009 (ip), vehicle: saline
[12] = dose: 200.0 mg/kg/injection, schedule: Q01DX009 (ip), vehicle: saline

Measured: T/C

O=C1OCc2cc3c(cc2-c2ccccc21)OCO3
inactive: dose: 100.0 mg/kg/injection, schedule: Q04DX002 (ip), vehicle: saline with Tween-80 95 % of control | dose: 200.0 mg/kg/injection, schedule: Q04DX002 (ip), vehicle: saline with Tween-80 101 % of control | dose: 400.0 mg/kg/injection, schedule: Q04DX002 (ip), vehicle: saline with Tween-80 91 % of control

CCCC[As](CCCC)SC1OC(C2COC(C)(C)O2)C2OC(C)(C)OC12 (centres undefined)
inactive: dose: 0.78 mg/kg/injection, schedule: Q01DX009 (ip), vehicle: water 101 % of control | dose: 1.56 mg/kg/injection, schedule: Q01DX009 (ip), vehicle: water 117 % of control | dose: 3.13 mg/kg/injection, schedule: Q01DX009 (ip), vehicle: distilled water + Tween-80 122 % of control | dose: 3.13 mg/kg/injection, schedule: Q01DX009 (ip), vehicle: water 101 % of control | dose: 6.25 mg/kg/injection, schedule: Q01DX009 (ip), vehicle: distilled water + Tween-80 96 % of control | dose: 6.25 mg/kg/injection, schedule: Q01DX009 (ip), vehicle: water 111 % of control | dose: 12.5 mg/kg/injection, schedule: Q01DX009 (ip), vehicle: distilled water + Tween-80 123 % of control | dose: 25.0 mg/kg/injection, schedule: Q01DX009 (ip), vehicle: distilled water + Tween-80 88 % of control

CC(C)(C)CC(C)(C)c1ccc(O)cc1O
inactive: dose: 12.5 mg/kg/injection, schedule: Q04DX003 (ip), vehicle: saline with Tween-80 110 % of control | dose: 25.0 mg/kg/injection, schedule: Q04DX003 (ip), vehicle: saline with Tween-80 105 % of control | dose: 50.0 mg/kg/injection, schedule: Q04DX003 (ip), vehicle: saline with Tween-80 120 % of control

c1ccc(Cn2nnnc2Nc2ccccc2)cc1
inactive: dose: 25.0 mg/kg/injection, schedule: Q01DX005 (ip), vehicle: Klucel (hydroxypropylcellulose) (HPC) 94 % of control | [1] 88 % of control and 97 % of control | [2] 94 % of control | [3] 90 % of control

CCCCCCCC[N+](C)(CCCCCCCC)CCCCCCCC
inactive: dose: 1.0 mg/kg/injection, schedule: Q04DX003 (ip), vehicle: saline 104 % of control | dose: 2.0 mg/kg/injection, schedule: Q04DX003 (ip), vehicle: saline 104 % of control | dose: 4.0 mg/kg/injection, schedule: Q04DX003 (ip), vehicle: saline 108 % of control

COC1C(CO)OC(n2c3c(Cl)cccc3c3c4c(c5c6cccc(Cl)c6[nH]c5c32)C(=O)NC4=O)C(O)C1O (centres undefined)
active: dose: 25.0 mg/kg/injection, schedule: Q01DX005 (ip), vehicle: saline with Tween-80 155 % of control | dose: 50.0 mg/kg/injection, schedule: Q01DX005 (ip), vehicle: distilled water + Tween-80 152 % of control | [4] 155 % of control | dose: 100.0 mg/kg/injection, schedule: Q01DX005 (ip), vehicle: distilled water + Tween-80 158 % of control | [5] 155 % of control | dose: 200.0 mg/kg/injection, schedule: Q01DX005 (ip), vehicle: distilled water + Tween-80 152 % of control | [6] 159 % of control | dose: 400.0 mg/kg/injection, schedule: Q01DX005 (ip), vehicle: saline with Tween-80 182 % of control

O=[N+]([O-])/C=C/c1cc2c(cc1O)OCO2
inactive: dose: 75.0 mg/kg/injection, schedule: Q01DX009 (ip), vehicle: Klucel (hydroxypropylcellulose) (HPC) 115 % of control | dose: 150.0 mg/kg/injection, schedule: Q01DX009 (ip), vehicle: Klucel (hydroxypropylcellulose) (HPC) 101 % of control | dose: 300.0 mg/kg/injection, schedule: Q01DX009 (ip), vehicle: Klucel (hydroxypropylcellulose) (HPC) 115 % of control

CC(=O)c1c(O)cc(-c2ccccc2)oc1=O
inactive: dose: 9.5 mg/kg/injection, schedule: Q01DX005 (ip), vehicle: Klucel (hydroxypropylcellulose) (HPC) 91 % of control | dose: 19.0 mg/kg/injection, schedule: Q01DX005 (ip), vehicle: Klucel (hydroxypropylcellulose) (HPC) 96 % of control | dose: 38.0 mg/kg/injection, schedule: Q01DX005 (ip), vehicle: Klucel (hydroxypropylcellulose) (HPC) 93 % of control | dose: 76.0 mg/kg/injection, schedule: Q01DX005 (ip), vehicle: Klucel (hydroxypropylcellulose) (HPC) 106 % of control

CN(C)c1ccc(/C=C/c2ccc3c(c2)OCO3)cc1
inactive: [7] 98 % of control | [8] 95 % of control | [9] 98 % of control

C/C=C1\CN2CC[C@H]1C[C@H]2[C@H](O)c1ccnc2ccc(NCCO)cc12
inactive: dose: 50.0 mg/kg/injection, schedule: Q01DX005 (ip), vehicle: saline 94 % of control | dose: 100.0 mg/kg/injection, schedule: Q01DX005 (ip), vehicle: saline 99 % of control | dose: 200.0 mg/kg/injection, schedule: Q01DX005 (ip), vehicle: saline 99 % of control

O=C(Oc1ccc[nH]c1=O)c1ccc(F)cc1
inactive: [10] 99 % of control and 104 % of control | [11] 100 % of control and 101 % of control | [12] 106 % of control and 108 % of control | dose: 400.0 mg/kg/injection, schedule: Q01DX009 (ip), vehicle: saline 111 % of control

CC(=O)OCCS(CCOC(C)=O)=NS(=O)(=O)c1ccc(C)cc1
inactive: [10] 108 % of control | [11] 108 % of control | [12] 106 % of control

CSC(N)=Nc1cccc2c1CCCC2
inactive: dose: 25.0 mg/kg/injection, schedule: Q01DX009 (ip), vehicle: saline 100 % of control | [10] 100 % of control | [11] 95 % of control

CC(C)(O)c1ccccc1Br
inactive: [7] 98 % of control | [8] 99 % of control | [9] 102 % of control

COc1ccc(-c2coc3cc(O)ccc3c2=O)c(O)c1OC
inactive: dose: 100.0 mg/kg/injection, schedule: Q04DX003 (ip), vehicle: Klucel (hydroxypropylcellulose) (HPC) 97 % of control | dose: 200.0 mg/kg/injection, schedule: Q04DX003 (ip), vehicle: Klucel (hydroxypropylcellulose) (HPC) 101 % of control | dose: 400.0 mg/kg/injection, schedule: Q04DX003 (ip), vehicle: Klucel (hydroxypropylcellulose) (HPC) 99 % of control

COc1ccc(C(=O)C(CCC(=O)/C=C/c2ccccc2)S(C)(=O)=O)cc1 (centres undefined)
inactive: [1] 105 % of control | [2] 99 % of control | [3] 87 % of control

COC(=O)[C@H]1[C@H]2C[C@@H]3c4[nH]c5cc(OC)ccc5c4CCN3C[C@H]2C[C@@H](OC(=O)CC(C)=O)[C@@H]1OC
inactive: [4] 95 % of control | [5] 91 % of control | [6] 88 % of control
